From PubChem BioAssay AID2060493 (Molecular Pharmacology Branch, DTP, NCI, 2025)
Values joined by “and” are separate entries in the source; they are usually repeats but may differ in a detail not shown here. Equal values may be shown once.

Tested on: 616215-338-R-J1-PDC tumor spheroids, viability
Assay: Anticancer human tumor 616215-338-R-J1-PDC patient-derived colon adenocarcinoma cell line growth inhibition [GQUAD]
Settings: spheroids with HUVEC and MSC; for viability, T/C: stronger effect = lower value
Text: DNA G-quadruplex Stabilizer Agents in Combinations in Complex Spheroids
A high-throughput screen of multi-cell type tumor spheroids was designed to identify active combinations of DNA G-quadruplex stabilizer agents and targeted small molecules. Complex spheroids include a stromal component modeled by human endothelial cells (HUVEC) and fibroblasts modeled by human mesenchymal stem cells (MSCs). The concentration ranges selected for each drug and investigational agent were based upon clinically achievable concentrations if the clinical Cmax of the agent was known.
Compounds. The drugs and investigational agents: pidnarulex (CX-5461; NSC782164), APTO-253 (NSC789042), BRACO-19 (NSC847499), peposertib (NSC802822), ceralasertib (NSC780249), elimusertib (NSC800525), camonsertib (NSC841442), AZD-1390 (NSC803789), olaparib (NSC753686), talazoparib (NSC767125), ART-558 (NSC835418), sotorasib (NSC818433), MRTX-1133 (NSC836407), SN-38 (NSC673596), topotecan (NSC609699), etoposide (NSC141540), doxorubicin (NSC123127), gemcitabine (NSC613327), 5-fluorouracil (NSC19893), paclitaxel (NSC125973), vemurafenib (NSC761431), panobinostat (NSC761190), R-306465 (JNJ-16241199; NSC773264), adavosertib (NSC754352), TP-3654 (NSC805149), carboplatin (NSC241240), KSQ-4279 (NSC840948), and staurosporine (NSC755774) were obtained from the National Cancer Institute (NCI) Developmental Therapeutics Program Chemical Repository (34). The FDA-approved anticancer drug set is available from the NCI Developmental Therapeutics Program. […] The stock solutions were prepared in dimethyl sulfoxide (DMSO, Sigma-Aldrich, St. Louis, MO, cat. D2650) at 800-fold the tested concentration and stored at -70 degrees C prior to their use. All drugs and investigational agents were tested over a range starting from a high concentration at or near the clinical Cmax and decreasing in half-log increments. If the clinical Cmax for an agent had not been determined, the highest concentration tested was 10 microM.
2.3 Cell Culture. All cells were maintained in an incubator at 37 degrees C and 5% CO2 with 95% humidity. The PDC lines were cultured according to standard operating procedures established by the NCI PDMR. All PDCs were thawed and cultured in Matrigel-coated flasks prepared with a working solution of 1X Ham's F-12 nutrient mix, without supplementation (Invitrogen, cat. 11765054), 100 U/mL penicillin-streptomycin (Invitrogen, cat. 15140122), and 2.5% Matrigel (Corning Inc., cat. 354248) for the first three passages. The 857933-349-R-J2-PDC line was cultured in 6C/Colon 1B media, which includes advanced DMEM/F-12 (Thermo Fisher Scientific, cat. 12634028), 10 mM HEPES (Thermo Fisher Scientific, cat. 15630080), 1X GlutaMAX supplement (Thermo Fisher Scientific, cat. 35050061), 0.1 mg/mL primocin (InvivoGen, cat. ant-pm-2), 10% defined fetal bovine serum, heat inactivated (HyClone Laboratories Inc., cat. SH30070.03HI), 50% L-WRN conditioned media (ATCC, cat. CRL-3276), 1.25 mM N-Acetyl-L-cysteine (Sigma-Aldrich, cat. A9165), 10 mM nicotinamide (Sigma-Aldrich, cat. N0636), 1X B-27 supplement (Thermo Fisher Scientific, cat. 17504044), 1X N-2 supplement (Thermo Fisher Scientific, cat. 17502048), 10 microM Y-27632 dihydrochloride (Tocris Bioscience, cat. 1254), and 50 ng/mL human EGF recombinant protein (Thermo Fisher Scientific, cat. PHG0311). The 485176-168-R4-J1-PDC line was cultured in Panc media, which includes all 6C/Colon 1B media components plus 100 ng/mL human FGF-10 (Thermo Fisher Scientific, cat. 100-26), 500 nM SB-431542 (Selleckchem, cat. S1067), and gastrin (Tocris, cat. 3006).
[…]
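Note: spheroids exposed to agents for 7 days before readout.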
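Throughout, for viability, T/C: percent viability relative to DMSO vehicle control wells taken as 100%.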

O=C(c1cc(Cc2n[nH]c(=O)c3ccccc23)ccc1F)N1CCN(C(=O)C2CC2)CC1
viability, T/C (compound 0.0316 µM): 96.6% and 106% and 92.3% | viability, T/C (compound 0.1 µM): 105% and 99.2% and 101% | viability, T/C (compound 0.316 µM): 98.7% and 104% and 96.1% | viability, T/C (compound 1 µM): 96.9% and 105% and 96.2% | viability, T/C (compound 3.16 µM): 102% and 105% and 98.3% | viability, T/C (compound 10 µM): 67.2% and 66.3% and 73.1% | IC50 (curve of compound): > 10000 nM

CC1COCCN1c1cc(C2(S(C)(=N)=O)CC2)nc(-c2ccnc3[nH]ccc23)n1 (stereo unspecified)
viability, T/C (compound 0.0316 µM): 112% and 99% and 92.8% | viability, T/C (compound 0.1 µM): 102% and 101% and 90.8% | viability, T/C (compound 0.316 µM): 122% and 95% and 90% | viability, T/C (compound 1 µM): 94.4% and 94.6% and 92.2% | viability, T/C (compound 3.16 µM): 72.2% and 51.3% and 62.8% | viability, T/C (compound 10 µM): 36% and 28.3% and 34.5% | IC50 (curve of compound): 6340 nM and 3380 nM and 5330 nM

COc1cc(C2c3cc4c(cc3C(OC3OC5COC(C)OC5C(O)C3O)C3COC(=O)C23)OCO4)cc(OC)c1O (stereo unspecified) + Cc1[nH]c2ccc(F)cc2c1-c1nc2c3cccnc3c3ncccc3c2[nH]1
IC50 (curve of first compound, second compound 0.0316 µM): 669 nM | IC50 (curve of first compound, second compound 0.1 µM): 1050 nM | IC50 (curve of first compound, second compound 0.316 µM): 889 nM | IC50 (curve of first compound, second compound 1 µM): 584 nM | IC50 (curve of first compound, second compound 3.16 µM): 541 nM | IC50 (curve of first compound, second compound 10 µM): 720 nM | viability, T/C (second compound 0.0316 µM, first compound 0.0316 µM): 113% | viability, T/C (second compound 0.0316 µM, first compound 0.1 µM): 97.5% | viability, T/C (second compound 0.0316 µM, first compound 0.316 µM): 64.9% | viability, T/C (second compound 0.0316 µM, first compound 1 µM): 41.6% | viability, T/C (second compound 0.0316 µM, first compound 3.16 µM): 32.4% | viability, T/C (second compound 0.0316 µM, first compound 10 µM): 25.4% | viability, T/C (second compound 0.1 µM, first compound 0.0316 µM): 105% | viability, T/C (second compound 0.1 µM, first compound 0.1 µM): 101% | viability, T/C (second compound 0.1 µM, first compound 0.316 µM): 67.1% | viability, T/C (second compound 0.1 µM, first compound 1 µM): 54.4% | viability, T/C (second compound 0.1 µM, first compound 3.16 µM): 36.2% | viability, T/C (second compound 0.1 µM, first compound 10 µM): 28.4% | viability, T/C (second compound 0.316 µM, first compound 0.0316 µM): 84.6% | viability, T/C (second compound 0.316 µM, first compound 0.1 µM): 104% | viability, T/C (second compound 0.316 µM, first compound 0.316 µM): 75.7% | viability, T/C (second compound 0.316 µM, first compound 1 µM): 47% | viability, T/C (second compound 0.316 µM, first compound 3.16 µM): 31.9% | viability, T/C (second compound 0.316 µM, first compound 10 µM): 22.5% | viability, T/C (second compound 1 µM, first compound 0.0316 µM): 95.9% | viability, T/C (second compound 1 µM, first compound 0.1 µM): 97.9% | viability, T/C (second compound 1 µM, first compound 0.316 µM): 65.5% | viability, T/C (second compound 1 µM, first compound 1 µM): 37.5% | viability, T/C (second compound 1 µM, first compound 3.16 µM): 41.9% | viability, T/C (second compound 1 µM, first compound 10 µM): 25.4% | viability, T/C (second compound 3.16 µM, first compound 0.0316 µM): 86.2% | viability, T/C (second compound 3.16 µM, first compound 0.1 µM): 96.2% | viability, T/C (second compound 3.16 µM, first compound 0.316 µM): 63.2% | viability, T/C (second compound 3.16 µM, first compound 1 µM): 36.5% | viability, T/C (second compound 3.16 µM, first compound 3.16 µM): 40.4% | viability, T/C (second compound 3.16 µM, first compound 10 µM): 27.7% | viability, T/C (second compound 10 µM, first compound 0.0316 µM): 93.8% | viability, T/C (second compound 10 µM, first compound 0.1 µM): 87.3% | viability, T/C (second compound 10 µM, first compound 0.316 µM): 67.9% | viability, T/C (second compound 10 µM, first compound 1 µM): 40.8% | viability, T/C (second compound 10 µM, first compound 3.16 µM): 34.3% | viability, T/C (second compound 10 µM, first compound 10 µM): 23%
